The values below come from patent publication EP3858342A1, “ACYLHYDRAZONES FOR THE TREATMENT OF NEUROLOGICAL DISEASES” (Consejo Superior de Investigaciones Científicas (CSIC), priority 2018, dated 2020).

One assay concerns the target T1, NCS-1/Ric8a interaction (Homo sapiens, UniProt P62166).
T1 construct: expressed in transfected cells; host or cells: HEK293
Description: Co-immunoprecipitation assay of NCS-1/Ric8a interaction in transfected HEK293 cells. Particulars: for NCS-1/Ric8a interaction: HEK293 cells transfected with human Ric8a (V5 tag) and NCS1, IP with anti-NCS1, Western blot with anti-V5, DMSO lane = baseline; for modulatory activity: stated as the reason for modelling the compounds in Drosophila Frq2, underlying test not specified. Type of assay: cell-based. The protocol:
To identify compounds useful as modulators of the protein complex formed by NCS-1 and Ric8 (specifically as compounds useful for promoting NCS-1/Ric8a interaction), the experiment shown in Figure 1 was carried out. […] The DMSO lane represents baseline levels of NCS1/Ric8a interaction. IP was performed with anti-NCS1 antibodies, followed by the immunodetection of Ric8a in Western blot with the anti-V5 antibody.
(§1) • Figure 1. […] The DMSO lane represents […]. • Figure 2. […] The curves were fitted considering a stoichiometry of 1:1. For correct curve comparison, intensities were normalized and depicted as (I0 - I)/I0. X. The value of r^2 is 0.998. • Figure 3. […] The residues in which sequence differences are found are shown in pink. • Figure 4. These three figures show the pharmacophore group taking the compound A3H3 as an example. Specifically, groups A1, A2, and N6 (N) refer to the heteroatoms forming the central part of acylhydrazone commonly found in all the assayed compounds, in other words, the carbonyl (A1) bound to the N of amide (N6), which is in turn bound to another imine N (A2). The terms R7 (R) and R8 (R') refer to the aromatic rings which act as substituents. Both the carbonyl-bound R and the imine N-bound R are aromatic • Figure 5. […] Evaluation of the efficacy of compound A3H3 in a model for Huntington's disease. Wild-type mice WT and transgenic mice (HD) expressing exon 1 of human huntingtin (strain R6/1) were treated orally with compound A3H3 at a dose of 25 mg/kg. The treatment started at 3 months of age and lasted for 6 weeks. As a measurement of motor coordination, stride length (A) and the stay time on Rotarod (B) were analyzed.
In order to evaluate the capacity of the compounds of the invention, A3H3, A5H2, and A3H4, for modulating interaction between human NCS-1 and Ric8as, HEK293 cells were transfected with a version of epitope V5-labeled Ric8a (Ric8a-V5) and NCS-1, performing cell incubation and then cell lysis with the product to be assayed. The amount of NCS-1-bound Ric8a-V5 was then assessed by means of the immunoprecipitation technique.
(In western blotting, separated proteins are transferred to a membrane and probed.)

The subject of assay [1] is transgenic mice (HD) expressing exon 1 of human huntingtin (strain R6/1). Description: Motor coordination in a mouse model for Huntington's disease. In kind it is in vivo. Particulars: oral, 25 mg/kg, start at 3 months of age, after 6 weeks, significant differences with respect to the rest of groups.
Text: as §1

Assay [2] relates to flies overexpressing human aβ42arc (D42Gal4> aβ42arc). As to the kind of experiment: Number of synapses in a Drosophila melanogaster model for Alzheimer's disease. Type of assay: in vivo. The settings on record: flies fed with 100 µM throughout the entire life cycle; adult abdominal motor neurons of 20 days; nc82-positive points, confocal images; vs DMSO. The protocol:
It has been described above that the expression of the human aβ42arc peptide (Arctic mutation) in motor neurons leads to a reduction in the number of synapses with respect to normal neuromuscular junctions in individuals of the same age, therefore, flies overexpressing human aβ42arc (D42Gal4> aβ42arc) were fed with 100 µM compound A3H3 or with the same amount of solvent, DMSO, throughout the entire life cycle. Adult abdominal motor neurons of 20 days were analyzed and the number of synapses (nc82-positive points) was determined in different flies using confocal images.

A further assay concerns the target T2, dNCS-1 (Drosophila melanogaster, UniProt Q9VWX8).
T2 sequence (Q9VWX8 1-187): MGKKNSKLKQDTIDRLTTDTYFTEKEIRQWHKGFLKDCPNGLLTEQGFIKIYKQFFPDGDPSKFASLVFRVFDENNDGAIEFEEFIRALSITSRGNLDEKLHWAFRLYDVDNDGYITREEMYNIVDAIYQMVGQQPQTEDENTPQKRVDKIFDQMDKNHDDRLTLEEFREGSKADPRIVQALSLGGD
As to the kind of experiment: Affinity for dNCS-1 by fluorescence spectroscopy. Type of assay: binding. The settings on record: for affinity in the fluorescence technique: additional fluorescence studies, result in words. The text has this: The protein complex formed by NCS-1 and Ric8 regulates the number of synapses and neurotransmitter release probability, so it is considered a good therapeutic target for the treatment of diseases in which the synapse is impaired. Based on fluorescence spectroscopy studies, the affinity of compounds for dNCS-1 (neuronal calcium sensor of Drosophila) has been proven. Neuronal calcium sensor NCS-1 is a protein the sequence of which is conserved from yeasts to humans.
The affinity of the compounds for dNCS-1 was measured by means of the fluorescence spectroscopy technique. The emission intensity of the complex is analyzed, where the signal is monitored at increasing concentrations of ligand (1:0 to 1:30 equivalents), keeping the protein concentration […], 30.8 µM, 1 eq.) constant. The affinity constant is thereby obtained through the apparent disassociation constant. […] The experiments are performed at 5°C with dNCS-1 in 50 mM Tris buffer, pH 7.9, 125 mM NaCl, 0.5 mM CaCl2 with 5% DMSO in a total volume of 300 µL. The experiment is performed at the excitation wavelength of 295 nm and at the emission wavelength of 345 nm (maximum emission) depending on the compound in a Jobin Yvon Floromax4 spectrofluorometer equipped with a Peltier Thermostat; the obtained values are the result of the normalized average of the three repetitions for each measurement. […] The affinity constants found for the tested compounds are as follows: […]

For assay [3], the system named is Flies overexpressing aβ42arc (D42Gal4> aβ42arc) in their motor neurons. As to the kind of experiment: Locomotor activity in a Drosophila melanogaster model for Alzheimer's disease (Drosophila activity monitors). In kind it is in vivo. Particulars: D42Gal4> aβ42arc flies fed 100 µM; total number of beam breaks per hour, two consecutive days; vs DMSO. On the procedure: As mentioned, overexpression of the human aβ42arc peptide in the motor neurons of Drosophila melanogaster causes synapse loss and this correlates with a severe locomotor dysfunction. Flies overexpressing aβ42arc (D42Gal4> aβ42arc) in their motor neurons or overexpressing the control (D42Gal4> LacZ) were fed with compound A3H3 at a concentration of 100 µM or with DMSO using the same concentration. Fly locomotor activity was recorded in Drosophila activity monitors (DAM2, Trikinetics) and the total number of beam breaks per hour was analyzed for two consecutive days.

Setting [4] is: apparent dissociation constant, 5°C, 50 mM Tris buffer pH 7.9, 125 mM NaCl, 0.5 mM CaCl2, 5% DMSO, excitation 295 nm, emission 345 nm, three repetitions, read-out: Kd.

“Also recorded” adds a separate entry of the source. Read-outs that look alike come from different tables or passages of the source.

T1 sequence (P62166 2-190 limits assumed): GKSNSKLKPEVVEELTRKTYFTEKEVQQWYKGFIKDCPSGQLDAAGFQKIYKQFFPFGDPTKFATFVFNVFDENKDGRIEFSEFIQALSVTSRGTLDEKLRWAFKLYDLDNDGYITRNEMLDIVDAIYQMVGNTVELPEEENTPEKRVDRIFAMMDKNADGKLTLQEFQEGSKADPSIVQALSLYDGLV
T1 sequence (Q9NPQ8 whole entry partner): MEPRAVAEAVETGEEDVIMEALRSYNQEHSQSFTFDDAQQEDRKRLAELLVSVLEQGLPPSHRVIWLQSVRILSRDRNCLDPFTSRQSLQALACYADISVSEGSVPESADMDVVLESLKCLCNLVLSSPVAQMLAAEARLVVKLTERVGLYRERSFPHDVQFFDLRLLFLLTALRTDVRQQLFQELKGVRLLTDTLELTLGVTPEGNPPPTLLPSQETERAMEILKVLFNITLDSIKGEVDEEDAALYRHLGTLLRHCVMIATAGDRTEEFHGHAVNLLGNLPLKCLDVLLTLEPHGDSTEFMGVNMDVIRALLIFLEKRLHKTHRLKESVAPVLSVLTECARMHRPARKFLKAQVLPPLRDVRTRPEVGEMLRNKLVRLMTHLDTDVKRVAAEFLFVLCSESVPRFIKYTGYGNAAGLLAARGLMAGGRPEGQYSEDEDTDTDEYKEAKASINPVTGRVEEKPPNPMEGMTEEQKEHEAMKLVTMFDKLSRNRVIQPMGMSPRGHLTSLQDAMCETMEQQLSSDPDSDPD

In the case of `O=C(Cc1c[nH]c2ccccc12)NN=Cc1ccc([N+](=O)[O-])c(O)c1` (mixture of isomers) [A3H3, (E/Z)-N'-(3-hydroxy-4-nitrobenzylidene)-2-(1H-indol-3-yl)acetohydrazide], on NCS-1/Ric8a interaction (HEK293 cells transfected with Ric8a-V5 and NCS-1, amount of NCS-1-bound Ric8a-V5 by immunoprecipitation), the “increase of the binding of NCS-1 with Ric8a” value is listed as “more than two fold”. For the same compound, at NCS-1/Ric8a interaction, the NCS-1/Ric8a interaction result is “allows interaction with Ric8-a; also recorded: promoted NCS-1/Ric8a interaction” and the modulatory activity result is “exhibited modulatory activity”. For the same compound, in assay [1], the “stay time on Rotarod” value is given as “the same cannot be said” and the stride length entry is “the same cannot be said”. The “pathological reduction of the synapse count” value in assay [2] is given as “greatly suppressed”. The Kd at dNCS-1 (setting [4]) worked out at 43 ± 6 µM. The “locomotor impairment due to overexpression of aβ42arc” value in assay [3] is recorded as “thoroughly improved”.

With `O=C(NN=Cc1ccc([N+](=O)[O-])c(O)c1)c1cc2ccccc2cc1O` (mixture of isomers) [A3H19, (E/Z)-3-hydroxy-N'-(3-hydroxy-4-nitrobenzylidene)-2-naphthohydrazide], on NCS-1/Ric8a interaction, the NCS-1/Ric8a interaction entry is given as “promoted NCS-1/Ric8a interaction”.

As for `O=C(NN=Cc1ccc(Cl)c([N+](=O)[O-])c1)c1cccs1` (mixture of isomers) [A5H8, (E/Z)-N'-(4-chloro-3-nitrobenzylidene)thiophene-2-carbohydrazide], the Kd on dNCS-1 turned out to be 19 ± 8 µM.

With `O=C(NN=Cc1cc(F)ccc1[N+](=O)[O-])c1cccs1` (mixture of isomers) [A7H8, (E/Z)-N'-(5-fluoro-2-nitrobenzylidene)thiophene-2-carbohydrazide], the Kd on dNCS-1 (setting [4]) was found to be 4 ± 1 µM.

`O=C(NN=Cc1ccc([N+](=O)[O-])c(O)c1)C(O)c1ccccc1` (racemic) [A3H6, (±)-(E/Z)-2-hydroxy-N'-(3-hydroxy-4-nitrobenzylidene)-2-phenylacetohydrazide]: the NCS-1/Ric8a interaction result at NCS-1/Ric8a interaction was “promoted NCS-1/Ric8a interaction”.

`O=C(N/N=C/c1ccc([N+](=O)[O-])c(O)c1)c1ccco1` [A3H2, (E)-N'-(3-hydroxy-4-nitrobenzylidene)furan-2-carbahydrazide]: the Kd at dNCS-1 (setting [4]) was 32 ± 2 µM.

For `COCCC(=O)N/N=C/c1ccc([N+](=O)[O-])c(O)c1` [A3H4, (E)-N'-(3-hydroxy-4-nitrobenzylidene)-3-methoxypropanehydrazide], the NCS-1/Ric8a interaction result on NCS-1/Ric8a interaction is “allows interaction with Ric8-a”.

Regarding `CC(C)(C)c1ccc(C(=O)N/N=C/c2ccc([N+](=O)[O-])c(O)c2)cc1` [A3H17, (E)-4-(tert-butyl)-N'-(3-hydroxy-4-nitrobenzylidene)benzohydrazide], on NCS-1/Ric8a interaction, the NCS-1/Ric8a interaction entry is reported as “promoted NCS-1/Ric8a interaction”.

On to `O=C(N/N=C\c1ccc([N+](=O)[O-])c(O)c1)c1ccc(Cl)s1` [A3H18, (Z)-5-chloro-N'-(3-hydroxy-4-nitrobenzylidene)thiophene-2-carbohydrazide], for which, on NCS-1/Ric8a interaction, the NCS-1/Ric8a interaction result was “promoted NCS-1/Ric8a interaction”.

Consider `O=C(Cc1c[nH]c2ccccc12)NN=Cc1ccc2ccccc2c1[N+](=O)[O-]` [A4H3], for which, at dNCS-1, the “affinity in the fluorescence technique” value is reported as “without yielding any positive results”.

Regarding `O=C(NN=Cc1ccc2ccccc2c1[N+](=O)[O-])C(O)c1ccccc1` (stereo not drawn) [A4H6], the “affinity in the fluorescence technique” value at dNCS-1 is on record as “without yielding any positive results”.

In the case of `O=C(NN=Cc1ccc2ccccc2c1[N+](=O)[O-])c1cccs1` [A4H8], the “affinity in the fluorescence technique” value at dNCS-1 is recorded as “without yielding any positive results”.

With `O=C(N/N=C\c1ccc(Cl)c([N+](=O)[O-])c1)c1ccco1` [A5H2, (Z)-N'-(4-chloro-3-nitrobenzylidene)furan-2-carbohydrazide], the NCS-1/Ric8a interaction result at NCS-1/Ric8a interaction is “allows interaction with Ric8-a; also recorded: promoted NCS-1/Ric8a interaction”. Besides, the Kd on dNCS-1 (setting [4]) was 3.2 ± 0.3 µM.

Consider `O=C(NN=Cc1ccc(Cl)c([N+](=O)[O-])c1)C(O)c1ccccc1` (stereo not drawn) [A5H6], for which the modulatory activity result at NCS-1/Ric8a interaction was “exhibited modulatory activity”. Besides, the Kd at dNCS-1 (setting [4]) came to 3.2 ± 0.3 µM.

Take `O=C(N/N=C/c1cc(F)ccc1[N+](=O)[O-])c1ccco1` [A7H2, (E)-N'-(5-fluoro-2-nitrobenzylidene)furan-2-carbohydrazide]: on NCS-1/Ric8a interaction, the modulatory activity entry is on record as “exhibited modulatory activity”. Also, the Kd at dNCS-1 (setting [4]) came to 25 ± 4 µM.

With `O=C(N/N=C/c1cc([N+](=O)[O-])ccc1F)c1ccco1` [A8H2, (E)-N'-(2-fluoro-5-nitrobenzylidene)furan-2-carbohydrazide], on NCS-1/Ric8a interaction, the NCS-1/Ric8a interaction entry is “promoted NCS-1/Ric8a interaction”. Further, at dNCS-1 (setting [4]), the Kd was 7 ± 1 µM.
